System: M. bovis BCG transmembrane potential (ΔΨ)
Format: cell-based, Mycobacterium bovis BCG
Conditions: pH 7.2

Compound: N#CC(C#N)=NNc1cccc(Cl)c1 [CCCP, carbonyl cyanide m-chlorophenylhydrazone]
- DiOC2 red / green fluorescence ratio, M. bovis: 0.086±0.003

Reference: article PMC3567233 (Biochemistry, 2012)
